Values quoted from earlier work in PMC4287394 (Clinical cancer research : an official journal of the …, 2014).

Settings: Phase I; cited from earlier work

| Structure (SMILES) | Observed DLTs | Hyperglycaemia | Patients with rash | Patients with rash (all grades) [%] |
| --- | --- | --- | --- | --- |
| Nc1cc(C(F)(F)F)c(-c2cc(N3CCOCC3)nc(N3CCOCC3)n2)cn1 [BKM120] | rash, hyperglycemia and mood alterations |  |  |  |
| C=CCN(/C=C1/C(=O)O[C@H](COC)[C@@]2(C)C1=C(O)C(=O)C1=C2[C@H](OC(C)=O)C[C@]2(C)C(=O)CC[C@@H]12)CC=C [PX-866] |  | minimal hyperglycaemia | none |  |
| COc1ccc(Cl)c(Nc2nc3ccccc3nc2NS(=O)(=O)c2cccc(NC(=O)C(C)(C)N)c2)c1 [SAR245408] |  | minimal hyperglycaemia |  | 26 |
